# Laboratory results from paper PMC8692581, “A specific inhibitor of ALDH1A3 regulates retinoic acid biosynthesis in glioma stem cells” (Communications Biology, 2021).
# Tests used:
# ALDH1A1 = molecular target: T1, ALDH1A1 (Homo sapiens, UniProt P00352); assay: steady-state enzyme kinetics, NADH absorbance at […] nm ([…] activity retained at […] inhibitor); type: biochemical
# T1 construct: full-length, N-term 6xHis tagged
# T1 sequence (P00352 1-501): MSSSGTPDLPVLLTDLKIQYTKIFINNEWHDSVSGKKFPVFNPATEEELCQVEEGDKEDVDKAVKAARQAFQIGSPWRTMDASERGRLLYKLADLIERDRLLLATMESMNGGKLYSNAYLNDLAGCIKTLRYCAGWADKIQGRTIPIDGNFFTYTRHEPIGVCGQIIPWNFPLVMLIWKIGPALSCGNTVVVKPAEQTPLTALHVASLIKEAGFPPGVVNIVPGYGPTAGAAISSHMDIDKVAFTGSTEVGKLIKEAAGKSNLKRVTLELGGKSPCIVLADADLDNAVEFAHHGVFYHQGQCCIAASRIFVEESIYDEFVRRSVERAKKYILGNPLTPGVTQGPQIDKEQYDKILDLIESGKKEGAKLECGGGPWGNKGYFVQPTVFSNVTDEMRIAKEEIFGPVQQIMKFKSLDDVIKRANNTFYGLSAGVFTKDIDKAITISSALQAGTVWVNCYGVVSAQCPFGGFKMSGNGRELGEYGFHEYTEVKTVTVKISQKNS
# ALDH1A3 [1] = molecular target: T2, ALDH1A3 (Homo sapiens, UniProt P47895); assay: X-ray co-crystal structure ([…] Å); steady-state enzyme inhibition kinetics (IC50 […]); thermal shift MS in GSC-326 lysate; type: biochemical
# T2 construct: full-length, N-term 6xHis tagged
# T2 sequence (P47895 1-512): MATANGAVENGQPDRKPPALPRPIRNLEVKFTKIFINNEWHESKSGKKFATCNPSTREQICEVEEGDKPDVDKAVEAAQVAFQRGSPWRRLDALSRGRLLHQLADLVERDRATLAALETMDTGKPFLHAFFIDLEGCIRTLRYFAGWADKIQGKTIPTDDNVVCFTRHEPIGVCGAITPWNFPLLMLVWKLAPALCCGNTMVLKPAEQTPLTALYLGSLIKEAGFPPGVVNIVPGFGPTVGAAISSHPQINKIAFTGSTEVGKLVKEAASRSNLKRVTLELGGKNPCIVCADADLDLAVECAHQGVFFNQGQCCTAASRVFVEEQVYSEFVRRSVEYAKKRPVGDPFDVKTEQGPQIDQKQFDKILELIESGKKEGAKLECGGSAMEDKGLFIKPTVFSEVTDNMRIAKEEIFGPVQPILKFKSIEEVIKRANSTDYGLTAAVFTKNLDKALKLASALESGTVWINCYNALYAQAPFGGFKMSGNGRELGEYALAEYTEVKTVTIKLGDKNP
# ALDH1A3 [2] = molecular target: T2, ALDH1A3; assay: X-ray crystal structure ([…] Å), ternary with MCI-INI-3; crystals grown with […] NAD+; type: binding
Ki (ALDH1A1) [µM],Ki (ALDH1A3 [1]) [µM],SMILES,"X-ray crystal structure (2.8 Å), ternary with MCI-INI-3; crystals grown with 1 m (ALDH1A3 [2])"
78.2 ± 14.4,0.55 ± 0.11,COC(=O)c1cc(-c2ccc3c(c2)OCO3)nc2cc(-c3ccccc3)nn12 [MCI-INI-3],
,,NC(=O)c1ccc[n+]([C@@H]2O[C@H](COP(=O)([O-])OP(=O)(O)OC[C@H]3O[C@@H](n4cnc5c(N)ncnc54)[C@H](O)[C@@H]3O)[C@@H](O)[C@H]2O)c1 [NAD^+],The ligands NAD^+ and MCI-INI-3 are shown as gray and black sticks.
